Results taken from the NIST ThermoML archive (doi:10.1021/je025639s).

What was measured:
[1] = Ring tensiometer
[2] = xn = mol fraction of the nth substance listed; details: Ring tensiometer

OCCO [1,2-ethanediol]
[1]
Details	surface tension liquid-gas [mN/m]
293.15 K	48.9
298.15 K	48.6
303.15 K	48.1
308.15 K	47.5
313.15 K	47.1
318.15 K	46.4
323.15 K	45.9

OCCO [1,2-ethanediol] + CCO
surface tension liquid-gas [mN/m], [2]
Details	293.15 K	298.15 K	303.15 K	308.15 K	313.15 K	318.15 K	323.15 K
x2 = 0	48.9	48.6	48.1	47.5	47.1	46.4	45.9
x2 = 0.1	42	41.8	41.4	41.2	41	40.6	39.8
x2 = 0.3	32.9	32.7	32.2	31.6	31.1	30.8	30.7
x2 = 0.5	28.5	28.3	27.8	27.4	27	26.7	26.5
x2 = 0.6	26.9	26.4	26.1	25.8	25.4	25	24.8
x2 = 0.7	25	24.9	24.7	24.4	24	23.6	23.2
x2 = 0.9	23.1	22.68	22.33	22.05	21.8	21.55	21.1

CCO [ethanol]
[1]
Details	surface tension liquid-gas [mN/m]
293.15 K	22.3
298.15 K	21.8
303.15 K	21.4
308.15 K	21.1
313.15 K	20.8
318.15 K	20.5
323.15 K	20

CCO [ethanol] + OCCO
[2], x1 = 1
Details	surface tension liquid-gas [mN/m]
293.15 K	22.3
298.15 K	21.8
303.15 K	21.4
308.15 K	21.1
313.15 K	20.8
318.15 K	20.5
323.15 K	20
